In US4757069A, “Pyridazodiazepine derivatives” (Hoffmann-La Roche Inc., priority 1986, dated 1988):
Structures can show the parent of a compound that is named as a salt.

Biological target: T1, Angiotensin converting enzyme (rabbit lung) (Oryctolagus cuniculus, UniProt P12822)
T1 construct: Angiotensin converting enzyme (rabbit lung); from tissue; host or cells: rabbit lung
T1 sequence (P12822 34-1310): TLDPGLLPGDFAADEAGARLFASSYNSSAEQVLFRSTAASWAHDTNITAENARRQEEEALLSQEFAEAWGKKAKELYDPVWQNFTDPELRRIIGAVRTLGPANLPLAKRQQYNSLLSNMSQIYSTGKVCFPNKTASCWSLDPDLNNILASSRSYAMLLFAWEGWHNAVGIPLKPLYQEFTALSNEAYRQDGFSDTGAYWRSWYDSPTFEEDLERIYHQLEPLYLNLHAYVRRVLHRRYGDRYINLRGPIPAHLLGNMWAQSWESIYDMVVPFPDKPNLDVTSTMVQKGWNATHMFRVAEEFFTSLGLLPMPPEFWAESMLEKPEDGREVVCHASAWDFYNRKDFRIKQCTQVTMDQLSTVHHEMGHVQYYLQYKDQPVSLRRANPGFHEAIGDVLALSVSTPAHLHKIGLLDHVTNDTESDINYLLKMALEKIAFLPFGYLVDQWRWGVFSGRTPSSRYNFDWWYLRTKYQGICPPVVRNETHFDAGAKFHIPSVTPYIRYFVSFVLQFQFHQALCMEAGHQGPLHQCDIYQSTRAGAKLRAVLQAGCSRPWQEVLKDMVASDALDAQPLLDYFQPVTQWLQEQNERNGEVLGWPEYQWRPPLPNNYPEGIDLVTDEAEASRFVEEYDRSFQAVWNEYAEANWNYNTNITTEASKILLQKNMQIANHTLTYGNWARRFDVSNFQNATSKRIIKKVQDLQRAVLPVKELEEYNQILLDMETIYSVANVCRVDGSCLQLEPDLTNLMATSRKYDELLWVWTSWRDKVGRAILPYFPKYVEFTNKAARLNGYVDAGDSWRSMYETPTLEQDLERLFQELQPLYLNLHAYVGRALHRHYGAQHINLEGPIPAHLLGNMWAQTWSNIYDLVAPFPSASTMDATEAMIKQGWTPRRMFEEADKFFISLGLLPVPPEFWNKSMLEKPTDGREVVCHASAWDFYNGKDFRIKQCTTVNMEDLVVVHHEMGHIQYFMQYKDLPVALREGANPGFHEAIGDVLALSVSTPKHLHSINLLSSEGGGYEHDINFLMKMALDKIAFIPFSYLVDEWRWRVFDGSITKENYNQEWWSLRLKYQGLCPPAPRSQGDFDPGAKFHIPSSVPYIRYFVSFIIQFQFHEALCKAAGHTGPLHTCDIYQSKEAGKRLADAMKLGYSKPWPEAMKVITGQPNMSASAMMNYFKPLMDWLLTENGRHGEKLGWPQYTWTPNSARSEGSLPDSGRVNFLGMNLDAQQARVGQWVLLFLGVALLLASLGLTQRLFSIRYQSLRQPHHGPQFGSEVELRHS
Assay: Inhibition of angiotensin-converting enzyme in vitro (conversion of angiotensin I into angiotensin II, fluorescence)
Assay type: biochemical
Settings: rabbit lung ACE; 90 min preincubation at 37° C., pH 7.5; angiotensin I 250 μmol; 30 min reaction; read-out: IC50 (concentration of test substance which reduces by 50% the conversion of angiotensin I into angiotensin II)
Protocol: The activity of the present pyridazodiazepine derivatives in inhibiting angiotensin-converting enzyme in vitro can be determined using the test now described.
The method used is based on the method of Santos, R. A. S., Kreiger, E. M., and Greene L. J., Hypertension (1985), 7, 244-252. Angiotensin converting enzyme (rabbit lung) is incubated in the presence or absence of various concentrations of a test substance for 90 minutes at 37° C. in 0.1M potassium phosphate buffer, pH 7.5, containing 30 mmol of sodium chloride. If the test substance is an ester, it is cleaved by treatment with hog liver esterase prior to carrying out the test. The reaction is initiated by adding angiotensin I to a final concentration of 250 μmol. The final volume of the reaction mixture is 0.25 ml. After holding the reaction mixture at 37° C. for 30 minutes the reaction is terminated by adding 1.45 ml of 0.3M sodium hydroxide solution. […] of a 0.2% (weight/volume) solution of o-phthaldialdehyde in methanol are added and, after 10 minutes, the solution is acidified with 200 μl of 3M hydrochloric acid. The resulting solution is then subjected to fluorescence spectrometry using excitation and emission wavelengths of 365 nm and 500 nm, respectively, and the IC50 value is calculated. The IC50 is that concentration of test substance which reduces by 50% the conversion of angiotensin I into angiotensin II.

## N=C(N)Nc1ccc(CC[C@H](N[C@H]2CCCN3CCC[C@@H](C(=O)O)N3C2=O)C(=O)O)cc1 [Example 1, 9(S)-[1(S)-carboxy-3-(4-guanidinophenyl)propylamino]-octahydro-10-oxo-6H-pyridazo[1,2-a][1,2]diazepine-1(S)-carboxylic acid dihydrobromide]
  IC50: 600 pM
